{"source": "patent US20190106460A1", "about": "“BINDING INHIBITORS OF THE BETA. TRANSDUCIN REPEAT-CONTAINING PROTEIN” (priority 2011, published 2019)", "assay_type_in_all_cases": "cell-based", "key": {"PNT-1 cell line": {"system": "PNT-1 cell line", "test": "xCELLigence cell growth, non-malignant PNT-1", "protocol": "(§1) xCELLigence Method • Before starting the experiment add 50 μL of medium (RPMI 1640, 10% fetal bovine serum, 100 units/mL penicillin, 100 ug/mL streptomycin, and 2 mmol/L glutamine, all from GIBCO) to each well of 96 well E-plate (Roche) and place the plate in the xCELLigence platform to measure the background. • LNCaP/PNT-1 cells are seeded (LNCaPs 80000 cells/well; PNT1 3000 cells/well) in the plate in complete medium and equilibrated for 60 mins at RT before returning to the xCELLigence platform and incubating at 37° C./5% CO2. • 24 hrs after seeding, remove 100 μL of medium was removed from each well and cells were treated with compounds or DMSO diluted in 100 μL of OptiMEM (GIBCO). • Replace the plate in the xCELLigence platform • Cells growth can then be monitored in real-time by the cell index profile on the xCELLigence readout screen • Cell growth can be expressed as normalized cell index and doubling time/slope calculated using the RTCA software.\nThe susceptibility of cancer cell lines versus non-cancer cell lines following treatment with the compounds was also investigated."}, "LNCaP (prostate cancer)": {"system": "LNCaP (prostate cancer)", "test": "xCELLigence cell viability / proliferation, LNCaP", "protocol": "Example 9—Cell Based Activity of Cell Permeable Compounds on the xCELLigence Platform\nThe effects of the compounds shown in FIGS. 14A-14B were tested on cancer cell lines MCF7 (breast cancer) and LNCaP (prostate cancer) using the xCELLigence platform (http://www.roche-applied-science.com/sis/xcelligence/ezhome.html). This method of measuring cell viability via measuring cell index is known in the art.\nDifferent doses of the compounds were tested on MCF7 cells to see if there would be an effect on their cell viability.\nThe control compound was compared to its partner active compound (UBP037).\nas §1"}, "PDCD4 in MCF7 cells [1]": {"system": "PDCD4 in MCF7 cells", "test": "In-cell western assay for PDCD4 accumulation", "conditions": "for accumulation of PDCD4, in cell western: MCF7, treatment with cell permeable compound; for cell based activity: general statement, different delivery vehicles", "protocol": "In-Cell Western Assay for PDCD4 Accumulation.\nTo measure this an in-cell western assay was used and the peptidomimetics were delivered to the cells by nucleofection.\nMCF7 cells were grown in 10 cm dishes in 10 ml DMEM+10% FBS and 1% Pen/Strep at 37° C./5% CO2. On the day of nucleofection, the dish was washed with 90% confluent MCF7 cells with 5 ml PBS, then 3 ml of Trypsin/EDTA was added and incubated at 37° C./5% CO2 for approximately 5 mins until the cells detached from the plastic. 7 ml of normal growth media was added and the number of cells present was counted using a haemocytometer.\nThe cells were centrifuged cells at 90 g for 10 mins at RT and the supernatant was removed. 100 μl of Nucleofection Buffer V+ Supplement was added (Lonza Biologics Cat no VCA-1003) per 8×10^5 cells, and the cells were added to peptidomimetics dissolved in <3% DMSO.\nThe cell/peptidomimetic mix was added to cuvettes supplied for the nucleofector and the sample was nucleofected using the recommended MCF7 programme for high cell viability (i.e. E-014). 500 μl of TPA (12-O-tetradecanoylphorbol-13-acetate)-supplemented growth media (i.e. DMEM/10% FBS/1% Pen-Strep/10 nM TPA) was added to the cuvette and 100 μl of this solution was transferred to a well of a 96 well plate and incubated at 37° C./5% CO2 for 8 hours.\nThe celled were fixed by removing the growth media, adding 3.7% Formaldehyde in PBS and incubating at RT for 20 mins. The plate was washed three times in PBS. And the cells were permeabilised by washing 5× for 5 mins each in PBS+0.1% Triton X-100.\nThe cells were blocked by adding 3% BSA in PBS-Tween to the cells and incubating at RT for 1.5 hours. An anti-PDCD4 antibody (Abcam cat no: ab80590) was added at a concentration of 1:1000 in 3% BSA in PBS-T (50 ul/well) and incubated at RT for 2.5 hours. The cells were washed 5× for 5 mins each with PBS-T before the secondary antibody (LiCor Biosciences Donkey Anti-Rabbit IRDye 800CW cat no 926-32213) was added at a concentration of 1:1000, along with the DNA stain DRAQ5 at a concentration of 1:10000, in 3% BSA in PBS-T (50 ul/well) and incubated at RT for 1 hour, protected from light.\nThe cells were washed cells 5× for 5 mins each with PBS-T and all the liquid was removed from the wells before the plate was read on the LiCor Biosciences Odyssey at 700 nm and 800 nm. The reading was normalised in the 800 nm channel to that in the 700 nm channel. The data are shown in FIG. 12, where DMSO was used as a negative control and 20 μM MG132 was used as a positive control. The data is presented as percentage activity with DMSO=0% and […]=100% activity. Error bars represent standard deviation from 3 replicates.\nThe compounds shown in FIGS. 14A-14B were synthesised to improve cell permeability. […] FIG. 16 compares the round II compounds (shown in FIGS. 14A-14B) with UBP036 in this assay. […] Inhibition of βTrCP, which is responsible for the degradation of both PDCD4 and β-catenin, causes a concomitant stabilisation and accumulation of levels of these proteins which can be measured by in cell western assay."}, "PDCD4 in LNCaP cells": {"system": "PDCD4 in LNCaP cells", "test": "Traditional western blot for PDCD4, LNCaP", "source_text": "[…]"}, "PDCD4 in MCF7 cells [2]": {"system": "PDCD4 in MCF7 cells", "test": "Traditional western blot for PDCD4, MCF7", "source_text": "[…]"}}, "note": "Entries after “also recorded” stand apart in the source; their conditions may differ. Non-standard residues stand in square brackets, D forms with d. Residues, ends and D or L forms follow the SMILES beside them. *: point of attachment. Benzenesulfonyl(4-OMe) = COc1ccc(S(=O)(=O)*)cc1; Arachidoyl = CCCCCCCCCCCCCCCCCCCC(=O)*; Phe(3-F) = N[C@@H](Cc1cccc(F)c1)C(=O)O; Stearoyl = CCCCCCCCCCCCCCCCCC(=O)*; 2Naphthoyl = O=C(c1ccc2ccccc2c1)*; Brosyl = O=S(=O)(c1ccc(Br)cc1)*; Tos = Cc1ccc(S(=O)(=O)*)cc1; Ahx = NCCCCCC(=O)O"}
{"compound": "CCCCCCCCCCCCCCCCCC(=O)NCCCC[C@H](NC(=O)CCCCCNC(=O)[C@H](CCC(=O)O)NC(=O)[C@H](Cc1c[nH]c2ccccc12)NC(=O)[C@H](Cc1cccc(F)c1)NC(=O)CNC(=O)[C@H](CCC(=O)O)NC(=O)[C@@H](CC(=O)O)NS(=O)(=O)c1ccc(OC)cc1)C(N)=O", "note": "[UBP037, 4-(MeO)PhSO2-dEGF(3F)WE-Ahx-K(NHCOC17H35)-NH2] ({Benzenesulfonyl(4-OMe)}-[dD]EG[Phe(3-F)]WE[Ahx]K(Stearoyl)-NH2)", "values": [{"measurement": "cell growth, xCELLigence", "setting": "PNT-1 cell line", "value": "far less effect"}, {"measurement": "cell growth / proliferation, xCELLigence", "setting": "LNCaP (prostate cancer)", "value": "inhibit the growth; also recorded: severely restricts the proliferation"}, {"measurement": "accumulation of PDCD4, in cell western", "setting": "PDCD4 in MCF7 cells [1]", "value": "inconclusive results"}, {"measurement": "PDCD4 accumulation, traditional western blot", "setting": "PDCD4 in LNCaP cells", "value": "exhibited cellular activity"}, {"measurement": "PDCD4 accumulation, traditional western blot", "setting": "PDCD4 in MCF7 cells [2]", "value": "exhibited cellular activity"}]}
{"compound": "NC(=O)[C@H](CCCCNC(=O)c1ccc2ccccc2c1)NC(=O)CCCCCNC(=O)[C@H](CCC(=O)O)NC(=O)[C@H](Cc1c[nH]c2ccccc12)NC(=O)[C@H](Cc1cccc(F)c1)NC(=O)CNC(=O)[C@H](CCC(=O)O)NC(=O)[C@@H](CC(=O)O)NS(=O)(=O)c1ccc(Br)cc1", "note": "[UBP090, 4-(Br)PhSO2-dEGF(3F)WE-Ahx-K(NHCO(2-Naphth))-NH2] (Brosyl-[dD]EG[Phe(3-F)]WE[Ahx]K(2Naphthoyl)-NH2)", "values": [{"measurement": "cell based activity", "setting": "PDCD4 in MCF7 cells [1]", "value": "display cell based activity"}]}
{"compound": "CCCCCCCCCCCCCCCCCC(=O)NCCCC[C@H](NC(=O)CCCCCNC(=O)[C@H](Cc1c[nH]c2ccccc12)NC(=O)CNC(=O)[C@H](CCC(=O)O)NC(=O)[C@H](Cc1ccccc1)NC(=O)[C@@H](CC(=O)O)NC(=O)[C@H](CCC(=O)O)NS(=O)(=O)c1ccc(C)cc1)C(N)=O", "note": "[Ts-EdFEGW-Ahx-K(Stearic)-NH2, reference compound] (Tos-E[dD]FEGW[Ahx]K(Stearoyl)-NH2)", "values": [{"measurement": "cell growth / proliferation, xCELLigence", "setting": "LNCaP (prostate cancer)", "value": "levels of cell proliferation similar to that seen with DMSO"}]}
{"compound": "CCCCCCCCCCCCCCCCCCCC(=O)NCCCC[C@H](NC(=O)CCCCCNC(=O)[C@H](CCC(=O)O)NC(=O)[C@H](Cc1c[nH]c2ccccc12)NC(=O)[C@H](Cc1cccc(F)c1)NC(=O)CNC(=O)[C@H](CCC(=O)O)NC(=O)[C@@H](CC(=O)O)NS(=O)(=O)c1ccc(OC)cc1)C(N)=O", "note": "[UBP038, 4-(MeO)PhSO2-dEGF(3F)WE-Ahx-K(NHCOC19H39)-NH2] ({Benzenesulfonyl(4-OMe)}-[dD]EG[Phe(3-F)]WE[Ahx]K(Arachidoyl)-NH2)", "values": [{"measurement": "cell growth, xCELLigence", "setting": "PNT-1 cell line", "value": "far less effect"}, {"measurement": "cell growth / proliferation, xCELLigence", "setting": "LNCaP (prostate cancer)", "value": "inhibit the growth"}, {"measurement": "accumulation of PDCD4, in cell western", "setting": "PDCD4 in MCF7 cells [1]", "value": "inconclusive results"}, {"measurement": "PDCD4 accumulation, traditional western blot", "setting": "PDCD4 in LNCaP cells", "value": "exhibited cellular activity"}, {"measurement": "PDCD4 accumulation, traditional western blot", "setting": "PDCD4 in MCF7 cells [2]", "value": "exhibited cellular activity"}]}
{"compound": "COc1ccc(S(=O)(=O)N[C@H](CC(=O)O)C(=O)N[C@@H](CCC(=O)O)C(=O)NCC(=O)N[C@@H](Cc2cccc(F)c2)C(=O)N[C@@H](Cc2c[nH]c3ccccc23)C(=O)N[C@@H](CCC(=O)O)C(N)=O)cc1", "note": "[UBP022, 4-(MeO)-PhSO2-dEGF(3F)WE-NH2] ({Benzenesulfonyl(4-OMe)}-[dD]EG[Phe(3-F)]WE-NH2)", "values": [{"measurement": "cell based activity", "setting": "PDCD4 in MCF7 cells [1]", "value": "display cell based activity"}]}
